What all share (format): cell-based
Test [1] deals with murine microglia cell line BV-2 (LPA receptor LPAR5). The test is described as follows: FLIPR assay, intracellular Ca2+ release in murine microglia cell line BV-2. The following applies: Mus musculus; LPA-stimulated Ca2+ release, BV-2 cells, compound added 10 minutes prior to LPA. The source says:
(§1) B) Use of the Fluorometric Imaging Plate Reader (FLIPR) Assay for the Determination of Intracellular Ca^2+ Release in Human Mast Cell Line HMC-1 and the Murine Microglia cell line BV-2
(§2) The ability of the compounds of the formula Ito inhibit or bind the LPA receptor LPAR5 can be assessed by determining the intracellular Ca^2+ release in human or animal cells. For the analysis of activating potential of LPA and the inhibitory effects of compounds of the formula I two cell lines were used with high LPAR5 expression, the human mast cell line HMC-1 and the murine microglia cell line BV-2 (FIGS. 1 and 2). For the FLIPR assay using human mast cells in a 96-well-format, HMC-1 suspension cells from flask culture were harvested, resuspended and counted. 14×10^6 HMC-1 cells were transferred into a new 50 ml tube, centrifuged for 3 minutes at 540×g. The resulting cell pellet at the bottom of the tube was resuspended with 15 ml loading buffer (loading buffer contained HBSS buffer (pH 7.4), 0.1% BSA (bovine serum albumin), 2 μM FLUO-4 dye; HBSS buffer (pH 7.4) contained 1×HBSS, 20 mM HEPES, 0.01% Pluronic F-127, 2.5 mM Probenicid).
Cells in loading buffer were incubated for 45-60 minutes at 37° C. […] Results of the assay are expressed as % activation, and are calculated using maximum peak of activation (Amax). […]

For test [2], the system named is human mast cell line HMC-1 (LPA receptor LPAR5). The test is described as follows: FLIPR assay, intracellular Ca2+ release in human mast cell line HMC-1. The following applies: HMC1, LPA-stimulated Ca2+ release, HMC-1 cells, compound added 10 minutes prior to LPA.
Description: as §1, §2
Cells in loading buffer were incubated for 45-60 minutes at 37° C. After incubation cells were centrifuged for 3 minutes at 540×g and resuspended with 21 ml of HBSS buffer (pH 7.4). Each well of a poly-D-lysine coated 96-well-plate was filled with 150 μl cell solution, an equivalent of 100 000 cells/well. The 96-well-plate was centifuged for 2 minutes at 100×g (without brake) prior a recovery time of 30 minutes at 37° C. After this procedure cells were stimulated with LPA (in HBSS pH 7.4 and 0.1% BSA) to determine the EC50 of LPA in HMC-1 cells. For the determination of the inhibitory effect of compounds of the formula I, test compounds were added to the cells in the 96-well-plate 10 minutes prior the addition of LPA. Results of the assay are expressed as % activation, and are calculated using maximum peak of activation (Amax). The IC50 data of the above described FLIPR assay using human mast cell line HMC-1 for exemplary compounds of the present invention are shown in Table 2. Adherent BV-2 cells were seeded onto poly-D-lysine coated 96-well-plates (100000 cells/well) the day before performing the FLIPR assay. The density of the cells in the 96-well-plate at the day of the FLIPR assay should be 90%. After aspiration of the culture media, BV-2 cells were incubated for 30 minutes at 37° C. with loading buffer and recovered in 150 μl HBSS buffer for 30 minutes at 37° C. After this procedure cells were stimulated with LPA (in HBSS pH 7.4 and 0.1% BSA) to determine the EC50 of LPA in BV-2 cells. For the determination of the inhibitory effect of compounds of the formula I, test compounds were added to the cells in the 96-well-plate 10 minutes prior the addition of LPA. The IC50 data of the above described FLIPR assay using the murine microglia cell line BV-2 for exemplary compounds of the present invention are shown in Table 3.

Test [3] deals with washed human blood platelets (platelet LPA receptor LPAR5). Nature of the test: Aggregation assay for washed human blood platelets (LPA-induced). The conditions noted are these: reduction of maximal LPA-induced aggregation, 5 min preincubation at 37° C. As to the method: A) Aggregation Assay for Washed Human Blood Platelets (Thrombocytes)
Whole blood was collected from healthy volunteers using 3×20 ml syringes containing each 1/10 volume of buffered citrate. The anticoagulated whole blood was transferred into 50 ml polypropylene conical tubes (30 ml per tube). The tubes were centrifuged for 10 minutes at 150×g at room temperature without using the centrifuge brake. This procedure results in a lower phase of cellular components and a supernatant (upper phase) of platelet rich plasma (PRP). The PRP phase was collected from each tube and pooled for each donor. To avoid carry over of cellular components following first centrifugation, approximately 5 ml of PRP was left in the tube. The platelet concentration was determined using a ABX Micros 60 counter. The PRP phase was transferred to a new 50 ml tube. After 10 minutes standing at room temperature, 1 μl PGI2 (1 mM in Tris-HCl/pH 8.8) and 180 μl ACD/A were added per ml PRP. The PRP was then transferred to new 10 ml tube and centrifuged for 10 minutes at 500×g. After centrifugation a cellular pellet is visible at the bottom of the tube. The supernatant was carefully discarded and the cellular pellet, consisting of human blood platelets was then dissolved in 10 ml buffer T (buffer T composition: 145 mM NaCl, 5 mM KCl, 0.1 mM MgCl2×6 H2O, 15 mM HEPES, 5.5 mM glucose, pH 7.4). Platelet concentration in this solution was determined and buffer T was added to obtain a final concentration of 3.5×10^5 platelets per ml.
After 10 minutes at room temperature, 1 μl PGI2 per ml platelet solution was added and distributed into new 10 ml tubes. After a centrifugation step, 10 minutes at 500×g, supernatant was discarded and the platelets were resuspended in buffer T to a final concentration of 3.5×10^5 platelets per ml buffer T. Before use, platelet-containing buffer equilibrated for 30 minutes at room temperature. The human platelet aggregation assay was performed in single use cuvettes using the Platelet Aggregation Profiler® (PAP-4 or -8E, BIO/DATA Corporation). For a single experiment, 320 μl of platelet solution were transferred into an assay cuvette, 20 μl of calcium citrate solution (10 mM in H2O) and 20 μl of fibrinogen solution (20 mg/ml H2O) were added. The aggregation assay was performed in the assay cuvette at 37° C. and with 1.200 rpm stirring. To determine the EC50, eight assay cuvettes were loaded as described above with different concentrations of LPA. Aggregation was measured over 6 minutes at 37° C. with 1200 rpm (revolutions per minute) stirring. Results of the assay are expressed as % activation, and are calculated using maximum aggregation (Tmax) or area under curve (AUC) of the absorbance over 6 minutes. The inhibitory effect (IC50) of the test compounds was determined as the reduction of the maximal aggregation. Test compound was added prior starting the experiment with an incubation time of the test compound of 5 minutes at 37° C. with 1200 rpm stirring. The IC50 data of the above described platelet aggregation assay using human washed platelets for exemplary compounds of the present invention are shown in Table 1.

Regarding `Cc1c(COC(C)(C)C(=O)NCc2ccc(C(=O)O)cc2)nn(-c2ccc(Cl)cc2Cl)c1-c1ccc(Cl)cc1` [Example 9, 4-({2-[5-(4-Chloro-phenyl)-1-(2,4-dichloro-phenyl)-4-methyl-1H-pyrazol-3-ylmethoxy]-2-methyl-propionylamino}-methyl)-benzoic acid], the figures for the IC50 in test [1], in test [2] and in test [3] were 1800 nM, 1300 nM and 2900 nM, respectively.

Source of the values: patent US9346762B2, “Pyrazole derivatives and their use as LPAR5 antagonists” (SANOFI, priority 2012, dated 2016).
